According to patent publication US20240277744A1, “TREATMENT OF CHEMORESISTANT CANCER CELLS” (Cornell University, priority 2023, published 2024):

Assays:
TRA-1-60+ SW1990GR cells = experiment: High content screen / immunofluorescent staining of TRA-1-60+ cells; type: cell-based
Experimental: Immunofluorescent staining. Primary antibodies were TRA-1-60 antibody (BD, 1:200), biotin conjugated TRA-1-60 antibody (eBioscience, 1:200). Secondary antibodies were donkey anti-mouse Alexa-efluor594 (Life technologies, 1:500) or streptavidin conjugated Alexa Fluor® 594 (Life technologies, 1:200).
Cells were fixed with 10% formalin for 20 min at room temperature. After 1 hour blocking in PBS with 5% horse serum and 0.3% triton-X100, primary antibodies were added to cells and incubated overnight at 4° C. Secondary antibody incubation was 1.5 hours at room temperature.
Chemical library screening. The Prestwick library of FDA approved drugs (˜1280 chemicals) plus a collection of drugs in clinical trials was used for the screen on SW1990GR cells.
For screening, SW1990GR cells were plated in 384-well plates (5000 cells/well). After overnight incubation, chemicals were added at 1 μM or 10 μM in duplicate. After 5 days of treatment, plates were stained with TRA-1-60 antibody and analyzed with MetaXpress High Content Image Acquisition and Analysis System (Molecular Devices). Wells treated with DMSO were set as control. The reduction was calculated by subtracting the percentage of TRA-1-60^+ cells in the chemical-treated wells from that of control wells. Standard deviation of TRA-1-60^+ percentage in control wells was calculated and 3-fold of this value was taken as threshold to pick up the primary hit.

SW1990 xenograft tumors = experiment: Luciferase-labeled SW1990 xenograft in nude mice; type: in vivo
Experimental: CYM suppresses TRA-1-60 expression and blocks tumor growth in vivo. Next it was sought to validate the effects of CYM in vivo, using a xenograft model with luciferase-labeled SW1990 cells propagated in nude mice. Tumor-harboring mice were separated into 4 groups and treated with PBS (control), 2 mg/kg CYM, 50 mg/kg GEM, or 2 mg/kg CYM plus 50 mg/kg GEM through intraperitoneal injections twice per week. Luciferase intensity was quantified twice per week and normalized with the value obtained from the starting day. […] Consistent with imaging, of the four groups, mice treated with GEM plus CYM generated xenograft tumors with the smallest size (FIG. 6C) and weight (FIG. 6D).
Tissue samples were fixed with 4% paraformaldehyde overnight at 4° C., washed with 70% ethanol and then embedded in paraffin. After De-paraffin and rehydration, antigen retrieval was preceded in hot antigen retrieving buffer with a normal-pressure steamer for 30 min. blocking was proceeded 1 hour at room temperature in PBS containing 1% horse serum. Primary antibody was stained overnight at 4° C. in PBS plus 0.5% Triton X-100 and 5% horse serum. Secondary antibody was incubated at room temperature for 1.5 hours.
Mouse Procedures. To assess in vivo effects of Cymarin (CYM), Luciferase-labelled SW1990 cells were transplanted to nude mice subcutaneously. Each mouse received four injections (5×10^5 cells/site). 12 days later, mice were randomly separated into 4 groups and treated with PBS (control), GEM (50 mg/kg bodyweight), CYM (2 mg/kg bodyweight) or GEM (50 mg/kg bodyweight) plus CYM (2 mg/kg bodyweight) twice weekly via intraperitoneal injection. Image acquisition was performed twice weekly with Xtreme Optical and X-ray small animal imaging system. Luciferin potassium salt (Regis), substrate of luciferase, was applied at 2 mg/25 g bodyweight in 150 μl PBS. Isoflurane (Henry Schein) was used for anesthesia during imaging.

hESCs = settings: cited from earlier work

CO[C@H]1C[C@H](O[C@H]2CC[C@]3(C=O)[C@H]4CC[C@]5(C)[C@@H](C6=CC(=O)OC6)CC[C@]5(O)[C@@H]4CC[C@]3(O)C2)O[C@H](C)[C@H]1O [CYM, Cymarin]
percentage of TRA-1-60+ cells after treatment (TRA-1-60+ SW1990GR cells; 25 nM CYM, 5 days, SW1990GR, from ~18%): less than 5%
relative potency in TRA-1-60 inhibition (TRA-1-60+ SW1990GR cells; SW1990GR): higher potency than Ouabain
validation of primary hit (TRA-1-60+ SW1990GR cells; SW1990GR): able to be validated
IC50 (TRA-1-60+ SW1990GR cells; read-out: IC50, decrease of percentage of TRA-1-60+ cells): 15.2 ± 4.3 nM
tumor growth (luciferase intensity) (SW1990 xenograft tumors; 3 weeks, i.p. twice per week, GEM 50 mg/kg, CYM 2 mg/kg): grew more slowly
percentage of TRA-1-60+ cells in xenograft tumors (SW1990 xenograft tumors; CYM administration in GEM-treated tumors, immunofluorescence): ~13%
cell apoptosis in xenograft tumors (TUNEL+ cells) (SW1990 xenograft tumors; TUNEL assay): cell death increased
effect on hESCs in a previous screen (hESCs): differentiation inducer of hESCs
